Data from US20230066946A1, “1,5-DIPHENYLPYRAZOLYL-3-OXYALKYL ACIDS AND 1-PHENYL-5-THIENYLPYRAZOLYL-3-OXYALKYL ACIDS AND THE USE THEREOF FOR CONTROL OF UNWANTED PLANT GROWTH” (Bayer Aktiengesellschaft, priority 2019, published 2023).

How the values were obtained:
[1] = system: AMARE; test: Pre-emergence herbicidal action against AMARE; assay type: in vivo, Amaranthus retroflexus; conditions: 1280 g/ha, scored visually after about 3 weeks vs untreated controls
From the text: (§1) Seeds of mono- and dicotyledonous weed plants are placed in plastic pots in sandy loam soil (doubly sown with one species each of mono- or dicotyledonous weed plants per pot) and covered with soil. The compounds of the invention, formulated in the form of wettable powders (WP) or as emulsion concentrates (EC), are then applied onto the surface of the covering soil as aqueous suspension or emulsion with addition of 0.5% additive at a water application rate equivalent to 600 litres per hectare. After the treatment, the pots are placed in a greenhouse and kept under good growth conditions for the trial plants. After about 3 weeks, the effect of the preparations is scored visually in comparison with untreated controls as percentages. For example, 100% activity=the plants have died, 0% activity=like control plants. [table] Tables 4.1-4.15 below show the effects of selected compounds of the general formula (I) according to Tables 1 to 3 on various harmful plants at an application rate corresponding to 1280 or 320 g/ha, which have been obtained by the aforementioned experimental method.

[2] = system: STEME; test: Pre-emergence herbicidal action against STEME; assay type: in vivo, Stellaria media; conditions: 1280 g/ha, scored visually after about 3 weeks vs untreated controls
From the text: as §1

[3] = system: STEME; test: Post-emergence herbicidal action against STEME; assay type: in vivo, Stellaria media; conditions: 1280 g/ha, visual rating about 3 weeks after treatment
Description: (§2) [table] Seeds of mono- and dicotyledonous weed plants are placed in plastic pots in sandy loam soil (twin sowing with one species each of mono- or dicotyledonous weed plants per pot), covered with soil and cultivated in a greenhouse under controlled growth conditions. 2 to 3 weeks after sowing, the test plants are treated at the one-leaf stage. The compounds of the invention, formulated in the form of wettable powders (WP) or as emulsion concentrates (EC), are applied to the green parts of the plants as aqueous suspension or emulsion with addition of 0.5% additive at a water application rate equivalent to 600 litres per hectare. After the test plants have been kept in the greenhouse under optimum growth conditions for about 3 weeks, the activity of the preparations is rated visually in comparison to untreated controls. For example, 100% activity=the plants have died, 0% activity=like control plants. Tables 5.1-5.16 below show the effects of selected compounds of the general formula (I) according to Tables 1 to 3 on various harmful plants at an application rate corresponding to 1280 or 320 g/ha, which have been obtained by the aforementioned experimental method.

[4] = system: SETVI; test: Pre-emergence herbicidal action against SETVI; assay type: in vivo, Setaria viridis; conditions: 1280 g/ha, scored visually after about 3 weeks vs untreated controls
From the text: as §1

[5] = system: AMARE; test: Post-emergence herbicidal action against AMARE; assay type: in vivo, Amaranthus retroflexus; conditions: 1280 g/ha, visual rating about 3 weeks after treatment
Description: as §2

[6] = system: MATIN; test: Post-emergence herbicidal action against MATIN; assay type: in vivo, Matricaria inodora; conditions: 1280 g/ha, visual rating about 3 weeks after treatment
Description: as §2

SMILES | Pre-emergence action against AMARE in % [1] [%] | Pre-emergence action against STEME in % [2] [%] | Post-emergence action against STEME in % [3] [%] | Pre-emergence action against SETVI in % [4] [%] | Post-emergence action against AMARE in % [5] [%] | Post-emergence action against MATIN in % [6] [%]
CCN(CC)CC.O=C(O)COc1nn(-c2cccc(F)c2)c(-c2ccccc2)c1I [II-14] | 100 |  |  |  |  | 
CCCN.O=C(O)COc1nn(-c2cccc(F)c2)c(-c2ccccc2)c1I [II-06] | 90 | 90 | 100 |  |  | 
CCOC(=O)COc1nn(-c2c(F)cccc2F)c(-c2ccc(F)c(F)c2)c1[N+](=O)[O-] [I-144] | 100 |  |  | 100 |  | 
CC#CCNC(=O)COc1nn(-c2ccc(F)cc2)c(-c2cccc(F)c2)c1Br [III-017] | 100 | 100 |  | 100 | 100 | 
CCOC(=O)COc1nn(-c2ccc(F)cc2F)c(-c2ccc(F)cc2F)c1Br [I-088] | 90 | 100 | 100 | 90 | 100 | 90
O=C(COc1nn(-c2ccc(F)cc2)c(-c2cccc(F)c2)c1I)OCc1ccccc1 [I-124] |  | 100 |  | 100 |  | 90
COC(=O)COc1nn(-c2ccc(F)cc2)c(-c2cccc(F)c2)c1I [I-109] |  | 100 | 90 |  | 100 | 
CCOC(=O)COc1nn(-c2ccc(Cl)cc2F)c(-c2ccc(F)cc2Cl)c1Br [I-155] | 90 | 100 |  |  |  | 
CCOC(=O)COc1nn(-c2ccc(Cl)cc2F)c(-c2ccc(F)cc2)c1Br [I-156] | 100 | 100 |  | 90 | 100 | 90
O=C(COc1nn(-c2ccc(F)cc2)c(-c2cccc(F)c2)c1Br)NC1CC1 [III-018] | 90 | 100 |  | 90 | 100 | 
CCOC(=O)COc1nn(-c2ccccc2OC)c(-c2ccccc2)c1Br [I-092] | 100 | 100 |  | 100 | 100 | 
CC(C)(C)N.O=C(O)COc1nn(-c2cccc(F)c2)c(-c2ccccc2)c1I [II-09] | 90 | 100 | 100 |  |  | 
CCNC.O=C(O)COc1nn(-c2cccc(F)c2)c(-c2ccccc2)c1I [II-08] |  |  | 90 |  |  | 
CCOC(=O)COc1nn(-c2ccc(Cl)cc2F)c(-c2ccc(F)cc2F)c1Br [I-150] |  | 100 | 100 |  |  | 
C=CCNC(=O)COc1nn(-c2ccc(F)cc2)c(-c2cccc(F)c2)c1I [III-008] |  | 100 | 100 |  |  | 
CCOC(=O)COc1nn(-c2ccc(Cl)cc2)c(-c2ccc(F)cc2)c1Br [I-078] | 90 |  |  | 100 | 100 | 
O=C(O)COc1nn(-c2cccc(F)c2)c(-c2ccccc2)c1I [I-128] | 100 | 90 |  |  | 90 | 
COC(=O)C(C)Oc1nn(-c2ccccc2)c(-c2ccc(F)cc2)c1Br (centres unmarked) [I-132, Methyl 2-{[4-bromo-5-(4-fluorophenyl)-1-phenyl-1H-pyrazol-3-yl]oxy}propanoate] | 100 | 100 | 100 | 100 |  | 90
O=C(COc1nn(-c2ccccc2)c(-c2ccc(F)cc2)c1Br)OCc1ccccc1 [I-112] | 100 | 100 |  |  |  | 

SMILES | Pre-emergence action against AMARE in % [1] [%] | Pre-emergence action against STEME in % [2] [%] | Post-emergence action against STEME in % [3] [%] | Pre-emergence action against SETVI in % [4] [%] | Post-emergence action against AMARE in % [5] [%] | Post-emergence action against MATIN in % [6] [%]
COC(=O)COc1nn(-c2ccccc2F)c(-c2ccc([N+](=O)[O-])cc2)c1[N+](=O)[O-] [I-099] | 90 |  |  |  | 90 | 
COC(=O)C(C)Oc1nn(-c2ccccc2F)c(-c2ccc(F)c(F)c2)c1Br (centres unmarked) [I-170] | 100 | 100 | 100 | 100 | 90 | 
COC(=O)C(C)Oc1nn(-c2ccccc2)c(-c2ccccc2F)c1Cl (centres unmarked) [I-166] | 90 | 90 |  | 90 | 100 | 100
COC(=O)COc1nn(-c2ccc(F)cc2)c(-c2cccc(F)c2)c1[N+](=O)[O-] [I-108] | 90 |  |  | 100 |  | 
COC(=O)CNC(=O)COc1nn(-c2cccc(F)c2)c(-c2ccccc2)c1[N+](=O)[O-] [III-029] | 90 |  |  |  |  | 
COC(=O)COc1nn(-c2ccc(C)cc2)c(-c2cccc(F)c2)c1C#N [I-020] |  | 80 |  |  |  | 
CCOC(=O)COc1nn(-c2ccc(F)cc2)c(-c2ccc(F)cc2F)c1Br [I-086] | 100 | 90 |  | 90 | 100 | 
COC(=O)COc1nn(-c2ccccc2F)c(-c2ccc(F)s2)c1Cl [I-094, Methyl {[4-chloro-1-(2-fluorophenyl)-5-(5-fluoro-2-thienyl)-1H-pyrazol-3-yl]oxy}acetate] | 100 | 100 |  | 100 | 100 | 
COC(=O)C(C)(C)Oc1nn(-c2ccccc2)c(-c2ccc(F)cc2)c1Br [I-135] |  | 100 |  |  |  | 
O=C(O)COc1nn(-c2cccc(F)c2)c(-c2ccccc2)c1[N+](=O)[O-] [I-129] | 100 | 100 |  | 100 | 100 | 100
COC(=O)COc1nn(-c2ccc(Cl)c(Cl)c2)c(-c2ccc(F)c(F)c2)c1Cl [I-027] |  |  |  |  | 80 | 
O=C(COc1nn(-c2ccc(F)cc2)c(-c2cccc(F)c2)c1Cl)NCC1CC1 [III-025] |  | 100 | 100 |  | 90 | 
CCOC(=O)COc1nn(-c2ccccc2OC)c(-c2ccc(F)cc2F)c1Br [I-091] | 100 |  |  | 90 | 100 | 
O=C(O)COc1nn(-c2ccc(F)cc2)c(-c2cccc(F)c2)c1I [I-118] | 100 |  |  | 90 |  | 
CCCN(CCC)CCC.O=C(O)COc1nn(-c2cccc(F)c2)c(-c2ccccc2)c1I [II-07] | 90 | 90 |  |  |  | 
O=C(O)COc1nn(-c2cccc(F)c2)c(-c2ccccc2)c1Br [I-127] | 100 | 100 |  | 100 | 90 | 90
COC(=O)COc1nn(-c2ccccc2F)c(-c2ccc(F)s2)c1Br [I-095] | 100 | 100 |  | 100 | 100 | 100
COC(=O)CNC(=O)C(C)Oc1nn(-c2ccccc2)c(-c2ccc(F)cc2)c1Br (centres unmarked) [III-056, Methyl N-(2-{[4-bromo-5-(4-fluorophenyl)-1-phenyl-1H-pyrazol-3-yl]oxy}propanoyl)glycinate] | 100 | 100 |  | 90 |  | 90
